Assay results published in US10246498B2, “Genetically encoded histone reporter allele constructs” (THE JOHNS HOPKINS UNIVERSITY, priority 2014, dated 2019).
Entries after “also recorded” stand apart in the source; their conditions may differ.

How the values were obtained:
Klf10 = test: Real-time PCR of Kmt2d target gene Klf10 in spleen cells; assay type: in vivo, mouse; details: spleen cells of Kmt2d+/βGeo mice
Protocol: Real-time PCR was performed using Kmt2d-specific probes for exons 20 and 52 (Mm_02600438 and Mm_01717664, respectively) from TaqMan® Gene Expression Assays (Life Technologies, Carlsbad, Calif.). For a comparison of transfection efficiencies for indicator constructs in transient transfection studies, real-time PCR was performed using SYBR Green Real-Time PCR Master Mix (Life Technologies, Carlsbad, Calif.) and primers IND-F-([…]; SEQ ID NO: 5) and IND-R-([…]; SEQ ID NO: 6) that are specific for the H3K4 methylation indicator. For expression analysis for KMT2D target gene KLF10, real-time PCR was performed using Klf10-specific expression assay (Mm00449812_m1) from TaqMan® Gene Expression Assays (Life Technologies, Carlsbad, Calif.).

[1] = test system: H3K4 trimethylation activity in MEFs; test: H3K4me3 indicator in murine embryonic fibroblasts from Kmt2d+/βGeo and Kmt2d+/+ mice; assay type: cell-based, mouse
Description: (§1) An H3K4 trimethylation reporter was also created (FIG. 5B). This reporter is based on the H3 tail on one end and the TBP associated factor III (TAFIII) […] on the other end; the TAFIII […] only identifies and binds to trimethylated K4 on H3. When the H3K4 site gets trimethylated, the TAFIII […] can bind to the modified H3 tail and bring the two parts of the separated GFP in close proximity. The activity of the epigenetic modification system can be quantified through fluorescence.
Epigenetic reporter alleles were synthesized (OriGene, Rockville, Md.) using published sequences for component elements (Baird et al. (1999) Proc. Natl. Acad. Sci. 96:11241-6; Souslova et al. (2007) BMC Biotechnol. 7:37). Single nucleotide mutations were created using the QuickChange Lightening kit (Agilent Technologies Inc, Santa Clara, Calif.). For H4ac indicator, K5R, K8R, K12R, K16R and K20R (MUT indicator) were introduced. For H3K4me3 indicator, K4Q and D890A/W891A and M882A (three separate constructs) were introduced. For transient transfections, mouse embryonic fibroblasts (see below) were transfected with Fugene HD (Promega, Madison, Wis.), 48 hours prior to FACS. […] For drug stimulation, drug was added to the media 24 hours prior to FACS. For stable transfections in T293 (American Type Culture Collection) cells, 10 μg/ml of Blastocidin (Life Technologies, Carlsbad, Calif.) was added to the media for several weeks. For stable transfection in MEFs, the reporter was transferred to a ViraPower Lentiviral Expression System (Life Technologies, Carlsbad, Calif.). After selection with Blastocidin, the drug of interest was added 24 hours prior to FACS. SAHA, AR-42 and MS275 were purchased from Selleck (Selleck Chemicals, Houston, Tex.). […] FACS data were analyzed using FlowJo (Tree Star Inc, Ashland, Oreg.). A plasmid expressing HDAC3 was acquired from Addgene (Cambridge, Mass., plasmid 13819) and transfected into a stable cell line carrying the H4 acetyl reporter allele.

H3K4 trimethylation = H3K4 trimethylation (H3K4me3) reporter allele, GFP fluorescence by FACS; assay type: cell-based; details: FIG. 18F
Description: as §1
Epigenetic reporter alleles were synthesized (OriGene, Rockville, Md.) using published sequences for component elements (Baird et al. (1999) Proc. Natl. Acad. Sci. 96:11241-6; Souslova et al. (2007) BMC Biotechnol. 7:37). Single nucleotide mutations were created using the QuickChange Lightening kit (Agilent Technologies Inc, Santa Clara, Calif.). […] FACS data were analyzed using FlowJo (Tree Star Inc, Ashland, Oreg.). […]
Epigenetic reporter systems were created that monitor either H4 acetylation or H3K4 trimethylation machinery activity in an effort to determine whether there is an ongoing activity deficiency in cells from Kmt2d^+/βGeo mice (FIG. 18A). Both reporter alleles encode halves of green fluorescent protein separated by a flexible linker region (Baird et al. (1999) Proc. Natl. Acad. Sci. 96: 11241-6) with a histone tail and a histone reader at the N- and C-termini, respectively. […]

- cell numbers (H3K4 trimethylation; higher doses): decreased cell numbers at higher doses
Compound: CC(C)[C@H](C(=O)Nc1ccc(C(=O)NO)cc1)c1ccccc1 [AR-42]
- Klf10 expression (Klf10): normalization of expression of Klf10; also recorded: normalized
- dose at which Kmt2d+/βGeo MEFs achieve untreated wild-type levels of activity ([1]; Kmt2d+/βGeo MEFs): 5 µM
- H3K4 trimethylation activity ([1]; Kmt2d+/βGeo cells (MEFs)): enhanced
- H3K4me3 indicator activity in MEFs ([1]; both genotypes (Kmt2d+/+ and Kmt2d+/βGeo)): dose-dependent response
- response of the H3K4me3 indicator (H3K4 trimethylation; increasing levels of drug): dose dependent response
